The results in this text go back to patent US20220128545A1, “METHODS AND COMPOSITIONS FOR ANALYZING PLATELETS BY MASS CYTOMETRY” (Children's Medical Center Corporation, priority 2018, published 2022).

SMILES strings stand for the structures. Where two headings read alike, the source gives them in different places. Bridge positions count the residues as written; N and C are the ends. Square brackets hold non-standard residues; d marks the D form. Peptide text beside a SMILES is read from it. hArg = N=C(N)NCCCC[C@H](N)C(=O)O; Mpa = O=C(O)CCS

The target of assay [1] is T1, activated integrin αIIbβ3 (Homo sapiens, UniProt P05106+P08514).
T1 construct: endogenous in cells; host or cells: platelets in citrate-anticoagulated human whole blood
T1 sequence (P08514 32-887 limits assumed): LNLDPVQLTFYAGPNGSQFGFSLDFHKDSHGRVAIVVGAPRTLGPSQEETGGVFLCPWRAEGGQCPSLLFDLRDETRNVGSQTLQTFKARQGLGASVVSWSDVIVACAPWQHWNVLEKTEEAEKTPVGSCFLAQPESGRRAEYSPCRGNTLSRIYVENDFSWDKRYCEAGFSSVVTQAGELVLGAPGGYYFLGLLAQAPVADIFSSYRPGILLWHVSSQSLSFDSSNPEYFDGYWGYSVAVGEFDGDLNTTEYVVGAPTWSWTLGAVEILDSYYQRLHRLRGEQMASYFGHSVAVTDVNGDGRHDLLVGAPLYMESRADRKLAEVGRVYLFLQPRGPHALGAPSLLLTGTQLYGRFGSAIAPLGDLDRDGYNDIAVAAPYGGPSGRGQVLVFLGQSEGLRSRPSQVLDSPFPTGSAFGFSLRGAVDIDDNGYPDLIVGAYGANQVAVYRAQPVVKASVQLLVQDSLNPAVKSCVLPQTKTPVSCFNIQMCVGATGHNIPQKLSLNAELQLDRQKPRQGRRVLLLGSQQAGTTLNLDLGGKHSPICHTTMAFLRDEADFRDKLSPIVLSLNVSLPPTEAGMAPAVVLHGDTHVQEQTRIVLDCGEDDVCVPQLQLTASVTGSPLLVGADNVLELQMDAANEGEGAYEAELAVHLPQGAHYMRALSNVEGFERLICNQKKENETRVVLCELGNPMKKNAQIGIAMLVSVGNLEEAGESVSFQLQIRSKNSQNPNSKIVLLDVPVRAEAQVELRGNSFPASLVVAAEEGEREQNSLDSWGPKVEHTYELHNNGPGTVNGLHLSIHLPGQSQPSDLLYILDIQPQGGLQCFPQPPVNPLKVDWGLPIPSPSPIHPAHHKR
T1 sequence (P08514 891-1039 limits assumed): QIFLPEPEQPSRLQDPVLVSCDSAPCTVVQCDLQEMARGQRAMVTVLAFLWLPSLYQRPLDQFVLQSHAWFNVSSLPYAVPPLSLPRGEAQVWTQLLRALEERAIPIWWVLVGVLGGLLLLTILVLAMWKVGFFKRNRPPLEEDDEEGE
T1 sequence (P05106 27-788): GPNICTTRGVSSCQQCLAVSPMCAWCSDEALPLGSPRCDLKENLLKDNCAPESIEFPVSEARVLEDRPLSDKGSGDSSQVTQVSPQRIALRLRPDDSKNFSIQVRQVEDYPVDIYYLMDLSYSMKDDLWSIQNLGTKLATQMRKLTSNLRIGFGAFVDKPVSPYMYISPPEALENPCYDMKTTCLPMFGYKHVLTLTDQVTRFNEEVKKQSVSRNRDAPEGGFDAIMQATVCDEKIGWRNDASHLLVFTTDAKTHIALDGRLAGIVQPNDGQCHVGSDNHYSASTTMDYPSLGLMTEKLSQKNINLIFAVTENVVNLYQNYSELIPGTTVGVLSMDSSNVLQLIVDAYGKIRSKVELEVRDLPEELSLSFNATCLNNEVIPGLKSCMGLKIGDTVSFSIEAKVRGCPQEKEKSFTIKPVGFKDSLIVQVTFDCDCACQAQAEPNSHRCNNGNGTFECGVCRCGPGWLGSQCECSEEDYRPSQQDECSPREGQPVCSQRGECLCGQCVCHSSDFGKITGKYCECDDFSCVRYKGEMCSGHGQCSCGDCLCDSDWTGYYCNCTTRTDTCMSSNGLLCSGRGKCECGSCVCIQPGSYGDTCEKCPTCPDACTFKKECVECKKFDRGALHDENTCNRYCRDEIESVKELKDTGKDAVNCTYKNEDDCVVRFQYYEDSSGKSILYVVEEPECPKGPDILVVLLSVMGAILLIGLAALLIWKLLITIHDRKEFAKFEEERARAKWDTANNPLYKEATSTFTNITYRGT
The assay is described as follows: Specificity of in-house metal-tagged PAC1 for integrin αIIbβ3 (agonist stimulation, eptifibatide blockade) by MC. The class given is cell-based. As to conditions: whole blood; for Platelet surface activated αIIbβ3 expression compared with unstimulated controls: 200 μM agonist, PAC1-159Tb. From the text: FIG. 6. depicts measuring the specificity of in-house metal-tagged PAC1 for integrin αIIbβ3. […] Samples were fixed in 1% formaldehyde and analyzed by MC. […] Statistical analysis: 1-way ANOVA was used in conjunction with a Bonferroni post-test (with all results compared to the MMI achieved with agonist stimulation) to indicate statistical significance; **P<0.01 and ***P<0.001.
(§1) A panel of metal-labeled antibodies directed against platelet antigens of interest was assembled (FIG. 1A). Antibody clones were well-characterized, widely used and purchased from reputable vendors. Platelets in whole blood were reacted with the panel (containing anti-CD9-171Yb, anti-CD29-176Yb, anti-CD31-145Nd, anti-CD36-150Nd, anti-CD42a-155Gd, anti-CD42b-163Dy, anti-CD41-149Sm, anti-CD62P-172Yb, anti-CD61-165Ho, anti-CD63-161Dy, anti-CD107a-166Er, anti-CD154-154Sm, anti-GPVI-152Sm and anti-PAC1-159Tb; see FIG. 1A, Materials, and Table 1 for antibody information) in the presence of vehicle (HT-BSA), TRAP or ADP at the indicated concentrations for 30 minutes (FIG. 1B). Samples were fixed in 1% formaldehyde/HEPES-saline solution containing 125 nM Iridium 191/193 Cell-ID DNA Intercalator for 30 minutes. […] Samples were passed through a 35 μm cell-strainer (Corning Inc, Corning, N.Y.) and analyzed on a Helios Mass Cytometer (Fluidigm Corporation, San Francisco, Calif.; FIG. 1C). […]
To compare the MC and FFC platforms for platelet analysis a novel metal-tagged MC antibody panel was designed to target well-established surface markers on platelets (FIG. 1A, Table 1) including platelet surface P-selectin (monitored with anti-CD62P-172Yb) and platelet surface activated integrin αIIbβ3 (monitored with the activation-dependent monoclonal antibody PAC1, labeled in-house with 159Tb). The specificity of PAC1-159Tb for activated αIIbβ3 was assessed by its dependence on platelet activation for binding and by its blockade by the αIIbβ3 inhibitor, eptifibatide (FIG. 6A-6B).

For assay [2], the system named is platelet surface P-selectin (CD62P). The assay is described as follows: cells. The class given is cell-based, human. As to the method: (§2) FIGS. 2A-2D depict a comparison of MC and FFC platforms for measurement of agonist-stimulated integrin αIIbβ3 activation (PAC1) and P-selectin expression (CD62P) on platelets. Citrate-anticoagulated blood from 3 separate healthy donors was treated with vehicle or the indicated concentrations of ADP (A, B) or thrombin receptor activating peptide (TRAP) (C, D); for 30 minutes in the presence of PAC1-FITC or […] antibodies to assess integrin αIIbβ3 activation (A, C) and CD62P-PE or CD62P-172Yb antibodies to assess a-granule secretion (B, D). Samples were fixed in 1% formaldehyde and analyzed by MC or FFC. Data were analyzed using a non-linear fit of log agonist vs. response; variable slope in GraphPad Prism 5. Results are expressed as a percentage of mean metal intensity (MMI; MC readout) or the mean fluorescence intensity (MFI; FFC readout) achieved with 200 μM adenosine diphosphate (ADP) or TRAP, respectively (means±SEM; n=2/3, with n=2 accounting for the linear region of the TRAP dose-response [concentrations 1.5-3.5 μM] and n=3 accounting for all other concentrations [0-1 μM & 5-200 μM]).
(§3) Blood was collected by venipuncture with a 21-gauge butterfly needle into evacuated tubes containing 3.2% sodium citrate. Blood was drawn from healthy volunteers or GT patients who were free from antiplatelet agents and non-steroidal anti-inflammatory drugs for 10 days prior to the donation. The blood draws were performed by the same phlebotomist. Complete blood cell counts were performed in a Sysmex XN-1000 Hematology Analyzer.
as §1
(§4) Data were analyzed using GraphPad version 5.0 software (GraphPad Software, La Jolla, Calif.) and are presented as mean±standard error of the mean. […]

The subject of assay [3] is platelet surface activated integrin αIIbβ3. The assay is described as follows: cells. The class given is cell-based, human. As to the method:
as §2, §3, §1, §4

For assay [4], the system named is platelet surface P-selectin (CD62P). The assay is described as follows: cells. The class given is cell-based, human. As to the method: as §2, §3
(§5) Whole blood FFC analysis of platelet activation was performed as previously described. Three color analysis was performed using two cocktails of fluorescently labeled antibodies: PE-conjugated anti-CD62P, FITC-conjugated PAC1 (directed against the high affinity conformation of integrin αIIbβ3) and PE-Cy5-conjugated anti-CD42b; or PE-conjugated anti-CD41a, FITC-conjugated anti-CD61 and PE-Cy5-conjugated anti-CD42b (see Table 2 for antibody information). Citrate-anticoagulated whole blood was treated with vehicle, TRAP or ADP at the indicated concentrations in the presence of the appropriate fluorescently labeled antibody cocktail for 30 minutes at ambient temperature. Samples were fixed in 1% formaldehyde/HEPES-saline buffer for 30 minutes prior to analysis in a FACSCalibur flow cytometer (BD Biosciences, San Jose, Calif.). Platelets were gated based on forward light scatter, side light scatter and CD42b expression (see FIG. 8 for FFC platelet gating strategy). A total of 15,000 platelet events per sample were collected. […]
as §4
The source holds these as a separate data set.

Assay [5] relates to platelet surface activated integrin αIIbβ3. Put plainly: cells. The class given is cell-based, human. As to the method: as §2, §3, §5, §4
The source holds these as a separate data set.

Assay [6] deals with platelets in whole blood. The assay is described as follows: MC panel of 12 additional platelet surface markers during TRAP or ADP stimulation. It is filed as cell-based, human. Conditions: 30 minutes; for Platelet surface CD41, CD61, CD63, CD9, CD107a and CD154 / Platelet surface CD42a and CD42b: agonist 0-200 μM; for Surface plasma membrane levels of CD31, CD36, CD29 and GPVI: varying agonist concentrations. As for the experimental part: Citrate-anticoagulated blood from the same 3 separate healthy donors in FIGS. 2A-2D was simultaneously treated with vehicle or the indicated concentrations of TRAP (A) or ADP (B) for 30 minutes in the presence of a custom platelet-specific, metal-tagged antibody panel. This panel contained antibodies directed against CD41, CD61, CD63, CD9, CD107a, CD154, CD42a, CD42b, CD31, CD36, CD29 and GPVI. Samples were fixed in 1% formaldehyde and analyzed by MC. Data were analyzed using a non-linear fit of log agonist vs. response; variable slope or linear regression in GraphPad Prism 5. Results are expressed as a percentage of the mean metal intensity (MMI) achieved with 200 μM ADP or TRAP (means±SEM; n=2/3, with n=2 accounting for the linear region of the TRAP dose-response [concentrations 1.5-3.5 μM)] and n=3 accounting for all other concentrations [0-1 μM and 5-200 μM]). Statistical analysis: 1-way ANOVA was used in conjunction with a Dunnett multiple comparison test (all results compared to vehicle control) to indicate statistical significance; *P<0.05, **P<0.01 and ***P<0.001. Abbreviations: ADP, adenosine diphosphate; FFC, fluorescence flow cytometry; MC, mass cytometry; TRAP, thrombin receptor activating peptide.
A panel of metal-labeled antibodies directed against platelet antigens of interest was assembled (FIG. 1A). Antibody clones were well-characterized, widely used and purchased from reputable vendors. Platelets in whole blood were reacted with the panel (containing anti-CD9-171Yb, anti-CD29-176Yb, anti-CD31-145Nd, anti-CD36-150Nd, anti-CD42a-155Gd, anti-CD42b-163Dy, anti-CD41-149Sm, anti-CD62P-172Yb, anti-CD61-165Ho, anti-CD63-161Dy, anti-CD107a-166Er, anti-CD154-154Sm, anti-GPVI-152Sm and anti-PAC1-159Tb; see FIG. 1A, Materials, and Table 1 for antibody information) in the presence of vehicle (HT-BSA), TRAP or ADP at the indicated concentrations for 30 minutes (FIG. 1B). Samples were fixed in 1% formaldehyde/HEPES-saline solution containing 125 nM Iridium 191/193 Cell-ID DNA Intercalator for 30 minutes. Cells were washed two times in MilliQ deionized H2O to remove salts and resuspended in 0.5 mL of MilliQ deionized H20 containing EQ Four Element Calibration Beads (1:10 v/v [33,000 beads/mL]). Samples were passed through a 35 μm cell-strainer (Corning Inc, Corning, N.Y.) and analyzed on a Helios Mass Cytometer (Fluidigm Corporation, San Francisco, Calif.; FIG. 1C). Cell events were acquired at 300-500 events per second and >30,000 events were acquired in total. Platelets were gated based on DNA content (DNA-low) and CD41/CD61 expression (see FIG. 8 for the MC platelet gating strategy). High-dimensional analyses of platelet subpopulations were carried out using the visual stochastic neighbor embedding (viSNE) cluster analysis function in CYTOBANK™ software (www.cytobank.org). Experiments were carried out by the same scientist and all reagents were from the same lot.

Usually EC50 stands for the midpoint of the concentration-response curve. For `CC(C)C[C@H](NC(=O)[C@H](CC(C)C)NC(=O)[C@H](Cc1ccccc1)NC(=O)[C@@H](N)CO)C(=O)N[C@@H](CCCNC(=N)N)C(=O)N[C@@H](CC(N)=O)C(N)=O` [TRAP, SFLLRN-NH2], the “Platelet surface activated αIIbβ3 expression compared with unstimulated controls” value in assay [1] is on record as “significantly elevated”. In addition, the concentration giving a half-maximal response (EC50) in assay [2] came to 3400 nM; in assay [3], 3700 nM; in assay [4], 2300 nM; in assay [5], 2100 nM. Also, the “Platelet surface CD41, CD61, CD63, CD9, CD107a and CD154” value in assay [6] is listed as “elevated in a dose-dependent manner”. In addition, the “Platelet surface CD42a and CD42b” value in assay [6] was “trend to be dose-dependently decreased”. Further, the “Surface plasma membrane levels of CD31, CD36, CD29 and GPVI” value in assay [6] is given as “remained constant”.

Turning to `N=C(N)NCCCC[C@@H]1NC(=O)CCSSC[C@@H](C(N)=O)NC(=O)[C@@H]2CCCN2C(=O)[C@H](Cc2c[nH]c3ccccc23)NC(=O)[C@H](CC(=O)O)NC(=O)CNC1=O` [eptifibatide] ([Mpa][hArg]GDWPC-NH2; disulfide 1-7), the “Blockade of anti-PAC1-159Tb binding to activated integrin αIIbβ3” value in assay [1] (eptifibatide 2.5 μg/mL, following TRAP/ADP (200 μM) stimulation) is listed as “completely blocked”.

Take `Nc1ncnc2c1ncn2[C@@H]1O[C@H](COP(=O)(O)OP(=O)(O)O)[C@@H](O)[C@H]1O` [ADP, Adenosine 5′-diphosphate]: the “Platelet surface activated αIIbβ3 expression compared with unstimulated controls” value in assay [1] was “significantly elevated”. For the same compound, the EC50 in assay [2] (Homo sapiens, Platelet, 0.5 h, MC, CD62P-172Yb, citrate whole blood of healthy donors, 30 minutes, read-out: EC50 for agonist-induced platelet surface P-selectin expression) was determined as 1300 nM; in assay [3] (Homo sapiens, Platelet, 0.5 h, MC, anti-PAC1-159Tb, citrate whole blood of healthy donors, 30 minutes, read-out: EC50 for agonist-induced platelet surface activated αIIbβ3) it was 800 nM; in assay [4] (Homo sapiens, Platelet, 0.5 h, FFC, CD62P-PE, citrate whole blood of healthy donors, 30 minutes, read-out: EC50 for agonist-induced platelet surface P-selectin expression) it was 1200 nM; in assay [5] (Homo sapiens, Platelet, 0.5 h, FFC, anti-PAC1-FITC, citrate whole blood of healthy donors, 30 minutes, read-out: EC50 for agonist-induced platelet surface activated αIIbβ3), 600 nM. In addition, the “Platelet surface CD41, CD61, CD63, CD9, CD107a and CD154” value in assay [6] is “elevated in a dose-dependent manner”. In assay [6], the “Platelet surface CD42a and CD42b” value is reported as “stayed constant”. In addition, the “Surface plasma membrane levels of CD31, CD36, CD29 and GPVI” value in assay [6] was “remained constant”.
